Data published in PubChem BioAssay AID248 (DTP/NCI, 2004).
Several values for one entry are separate records, joined by “and”; a condition that tells them apart may be missing. Identical values can stand only once. Toxic doses and inconclusive results are not listed. No stated cut-off is given here; in the data, active means T/C of 150% or more; inactive means T/C below 125%.

Tested on: L1210 leukemia ip in BDF1 mice, survival T/C
Test: NCI In Vivo Anticancer Drug Screen. Data for tumor model L1210 Leukemia (intraperitoneal) in B6D2F1 (BDF1) mice
Conditions: endpoint: mean survival time, higher = longer survival
Outline: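 Value reflects the ratio of survival in compound-treated mice to survival in vehicle-treated controls, with both groups carrying the same transplanted tumor.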

[1] = dose: 100.0 mg/kg/injection, schedule: Q01DX009 (ip), vehicle: saline
[2] = dose: 100.0 mg/kg/injection, schedule: Q04DX003 (ip), vehicle: saline
[3] = dose: 200.0 mg/kg/injection, schedule: Q01DX009 (ip), vehicle: saline
[4] = dose: 200.0 mg/kg/injection, schedule: Q04DX003 (ip), vehicle: saline

Measured: T/C

O=C(O)C1C(C(=O)O)C23CC2(C(=O)O)C2(C(=O)O)CCC3=C3CCCC312 (stereo not drawn)
inactive: dose: 6.25 mg/kg/injection, schedule: Q01DX009 (ip), vehicle: saline 109 % of control | dose: 6.25 mg/kg/injection, schedule: Q04DX003 (ip), vehicle: saline 104 % of control | dose: 12.5 mg/kg/injection, schedule: Q01DX001 (ip), vehicle: saline 114 % of control | dose: 12.5 mg/kg/injection, schedule: Q01DX009 (ip), vehicle: saline 111 % of control | dose: 12.5 mg/kg/injection, schedule: Q04DX003 (ip), vehicle: saline 104 % of control | dose: 25.0 mg/kg/injection, schedule: Q01DX001 (ip), vehicle: saline 98 % of control | dose: 25.0 mg/kg/injection, schedule: Q04DX003 (ip), vehicle: saline 103 % of control

O=C1C[C@H]2CCCC[C@@H]2O1
inactive: dose: 75.0 mg/kg/injection, schedule: Q01DX001 (ip), vehicle: other 107 % of control | dose: 150.0 mg/kg/injection, schedule: Q01DX001 (ip), vehicle: other 105 % of control | dose: 300.0 mg/kg/injection, schedule: Q01DX001 (ip), vehicle: other 102 % of control

C[n+]1ccccc1C=O
inactive: dose: 50.0 mg/kg/injection, schedule: Q01DX001 (ip), vehicle: saline 100 % of control | dose: 50.0 mg/kg/injection, schedule: Q01DX009 (ip), vehicle: saline 102 % of control and 103 % of control | dose: 50.0 mg/kg/injection, schedule: Q04DX003 (ip), vehicle: saline 98 % of control | dose: 100.0 mg/kg/injection, schedule: Q01DX001 (ip), vehicle: saline 100 % of control | [1] 104 % of control and 113 % of control | dose: 100.0 mg/kg/injection, schedule: Q04DX002 (ip), vehicle: saline 97 % of control and 105 % of control | [2] 88 % of control | dose: 200.0 mg/kg/injection, schedule: Q01DX001 (ip), vehicle: saline 103 % of control | [3] 102 % of control and 109 % of control | dose: 200.0 mg/kg/injection, schedule: Q04DX002 (ip), vehicle: saline 102 % of control and 105 % of control | [4] 107 % of control | dose: 400.0 mg/kg/injection, schedule: Q04DX002 (ip), vehicle: saline 101 % of control

CC1(C)OCC(CO)([N+](=O)[O-])CO1
inactive: dose: 12.5 mg/kg/injection, schedule: Q04DX003 (ip), vehicle: saline with Tween-80 92 % of control | dose: 25.0 mg/kg/injection, schedule: Q01DX009 (ip), vehicle: saline with Tween-80 108 % of control | dose: 25.0 mg/kg/injection, schedule: Q04DX003 (ip), vehicle: saline with Tween-80 93 % of control | dose: 50.0 mg/kg/injection, schedule: Q01DX009 (ip), vehicle: saline with Tween-80 108 % of control | dose: 50.0 mg/kg/injection, schedule: Q04DX003 (ip), vehicle: saline with Tween-80 95 % of control | dose: 100.0 mg/kg/injection, schedule: Q01DX009 (ip), vehicle: saline with Tween-80 108 % of control | dose: 100.0 mg/kg/injection, schedule: Q04DX003 (ip), vehicle: saline with Tween-80 100 % of control | dose: 150.0 mg/kg/injection, schedule: Q04DX003 (ip), vehicle: saline with Tween-80 94 % of control

NC(CSS(=O)(=O)O)=NCCCOCc1ccccc1
inactive: dose: 12.5 mg/kg/injection, schedule: Q04DX002 (ip), vehicle: Klucel (hydroxypropylcellulose) (HPC) 103 % of control | dose: 25.0 mg/kg/injection, schedule: Q04DX002 (ip), vehicle: Klucel (hydroxypropylcellulose) (HPC) 93 % of control

COC(=O)C(C)CN1CCCCCC1 (stereo not drawn)
inactive: [1] 97 % of control | [2] 100 % of control | [3] 104 % of control | [4] 104 % of control | dose: 400.0 mg/kg/injection, schedule: Q01DX009 (ip), vehicle: saline 95 % of control | dose: 400.0 mg/kg/injection, schedule: Q04DX003 (ip), vehicle: saline 102 % of control
